Reference: patent publication US20120207861A1, “BIOCIDAL COMPOSITION AND METHOD FOR TREATING RECIRCULATING WATER SYSTEMS” (priority 2006, published 2012)

Experiments:
[1] = system: biofilm of fungal isolates (Paecilomyces lilacinus, Trichoderma spp.) and bacterial isolates (Alcaligenes species, Sphingomonas species); assay: Remediation: 96-well plate mixed biofilm treated with biocides, resazurin readout; format: cell-based; conditions: for Efficacy level (Effective Concentration with 6 ppm of PHMB): with 6 ppm PHMB, biofilm treated 24 hours at 28° C., resazurin; for Result (effect of adjuvant on DBNPA efficacy against biofilm): adjuvant 50 ppm with DBNPA in presence of PHMB
Procedure: Fungal isolates of common fungi found in swimming pools such as Paecilomyces lilacinus and Trichoderma spp. and bacterial isolates also common to swimming pools such as, i.e. Alcaligenes species and Sphingomonas species were used to construct a biofilm, which was treated with biocides, using the following method: […] An aliquot of the spore suspension was added to each well of a 96-well plate, except column 12. The plates were incubated for 18 hours at 28° C. Also, a mixture of bacterial suspension was prepared at a concentration of 2.34×10^5/ml in 20% […] broth. An aliquot of bacterial suspension was added to each well of the 96-well plate, where fungal spores were placed. The plates were incubated for 24 hours at 28° C. […] An aliquot of the chemical solution was added to each well of column 1 and 2. The solution was mixed in each well of column 2 and an aliquot of solution was transferred from each well of column 2 to each well of column 3. The dilution was repeated to column 11 and the solution from each well of column 11 after dilution was discarded. The culture broth was removed from each well of the incubated plate. An aliquot of 0.8% sodium chloride solution was added to each well, except column 12. The sodium chloride solution was then removed from each well. The prepared chemical solutions were transferred to the corresponding wells of the biofilm plate. The plate was incubated for 24 hours at 28° C. The chemical solution was removed from the plate and an aliquot of resazurin solution was added to each well including column 12. The plate was kept on the lab bench for 24-48 hours. The plate was read at 540 nm and 620 nm. The difference in absorbance between the two wavelengths indicated the performance of the biocides.

[2] = system: Bacteria (Alcaligenes, Chryseobacterium and Sphingomonas); assay: Prevention in test pools: water bacteria counts
Procedure: (§1) The test pools were run in the preventative mode to evaluate the effect of the sanitizers on the build up of bacteria and fungi in the system. The pool pumps were operated for a minimum of 8 hours per day. Each pool was challenged twice per week with eight species of bacteria and four species of fungi typically found in swimming pool water. These microorganisms include species of the fungi Paecilomyces and Trichoderma, and species of the bacteria Alcaligenes, Chryseobacterium and Sphingomonas. Each inoculation represents a total addition of 0.8×106 microorganisms per test pool. Synthetic bather load is added to the system on a weekly basis, as a nutrient source for the microorganisms present in the system. The bather load consists of carbon, nitrogen and macro/micro nutrient sources such as urea, albumin, creatinine, lactic acid, uric acid, glucuronic acid, sodium chloride, sodium sulfate, ammonium chloride, sodium bicarbonate, potassium phosphate potassium sulfate. The total number of viable bacteria and fungi present in each test pool was determined weekly, by conducting agar plate counts. Water samples are removed from each test pool, and using this sample a dilution series (in 10-1 steps, down to a 10-5 of the original sample) is prepared. Subsequently, an aliquot of each dilution is spread onto dry Cystine Lactose Electrolyte Deficient agar plates (for enumeration of bacteria) and dry Sabaroud-Dextrose agar plates (for enumeration of fungi). […] There were no chemical doses administered on Saturday or Sunday.

[3] = system: viable bacteria in pool water and sand with established biofilm; assay: Remedial secondary screen: failed model pool, reduction of viable microorganisms in water and sand; format: cell-based; conditions: FIGS. 1 and 2
Procedure: The secondary screen methodology is based upon a laboratory scale model of a swimming pool. A volume (800 ml) of synthetic swimming pool water (Calcium chloride dihydrate and Sodium hydrogen carbonate solution) is pumped through a body of swimming pool filter sand, by means of a peristaltic pump. The water temperature of each system is maintained in the range of 80-90° F. The systems are allowed to fail resulting in turbid water and heavy bacterial and fungal growth. This is to simulate a swimming pool that has been improperly maintained and has a problem. The purpose of this test is to evaluate the ability of a single biocide or combination of biocides with adjuvants for controlling the organisms present in both the water and the filter sand. Turbidity is not a key measure because the suspended solids are too fine for filtration so they would need to be removed with a separate chemical treatment such as flocculation. To the water, chemicals may be added as required. […] Hydrogen peroxide is added at concentrations of 0-27.5 ppm at the start of the experimentation. The secondary model system is challenged on a daily basis with eight species of bacteria and four species of fungi typically found in swimming pool water. These microorganisms include species of the fungi Paecilomyces and Trichoderma, and species of the bacteria Alcaligenes, Chryseobacterium and Sphingomonas. Each inoculation represents a total addition of 0.8×10^6 microorganisms per model apparatus. A volume (5 ml) of synthetic bather load is added to the system on a daily basis, as a nutrient source for the microorganisms present in the system. The bather load consists of carbon, nitrogen and macro/micro nutrient sources such as urea, albumin, creatinine, lactic acid, uric acid, glucuronic acid, sodium chloride, sodium sulfate, ammonium chloride, sodium bicarbonate, potassium phosphate potassium sulfate. […] The biocidal treatments are added and reduction of viable microorganisms is measured. The biocidal treatments may be added a second time.

[4] = system: fungi Paecilomyces and Trichoderma; assay: Prevention secondary screen: fungal plate counts; format: cell-based; conditions: Table 4
[5] = system: bacteria Alcaligenes, Chryseobacterium and Sphingomonas; assay: Prevention secondary screen: bacterial plate counts; format: cell-based; conditions: Table 4
[6] = system: eight species of bacteria and four species of fungi typically found in swimming pool water; assay: Prevention secondary screen: laboratory scale model of a swimming pool, water clarity and hydrogen peroxide loss; format: cell-based; conditions: for Number of Days of Clarity below 1.0 NTU / Number of Days of Clarity below 1.0 NTU with no Peroxide in System: Table 4
[7] = system: Mold (fungi Paecilomyces and Trichoderma); assay: Prevention in test pools: water mold counts
Procedure: as §1

[8] = system: eight species of bacteria and four species of fungi typically found in swimming pool water; assay: Prevention in test pools: overall mold and bacterial control
Procedure: The test pools were run in the preventative mode to evaluate the effect of the sanitizers on the build up of bacteria and fungi in the system. The pool pumps were operated for a minimum of 8 hours per day. Each pool was challenged twice per week with eight species of bacteria and four species of fungi typically found in swimming pool water. These microorganisms include species of the fungi Paecilomyces and Trichoderma, and species of the bacteria Alcaligenes, Chryseobacterium and Sphingomonas. Each inoculation represents a total addition of 0.8×106 microorganisms per test pool. Synthetic bather load is added to the system on a weekly basis, as a nutrient source for the microorganisms present in the system. The bather load consists of carbon, nitrogen and macro/micro nutrient sources such as urea, albumin, creatinine, lactic acid, uric acid, glucuronic acid, sodium chloride, sodium sulfate, ammonium chloride, sodium bicarbonate, potassium phosphate potassium sulfate. The total number of viable bacteria and fungi present in each test pool was determined weekly, by conducting agar plate counts. Water samples are removed from each test pool, and using this sample a dilution series (in 10-1 steps, down to a 10-5 of the original sample) is prepared. […]

[9] = Pool 2, 1.0 ppm/day DBNPA, Low Baquacil (10-20 ppm)
[10] = Pool 2, 1.0 ppm/day DBNPA, Recommended Baquacil (30-50 ppm)
[11] = Pool 6, 0.5 ppm/day DBNPA, Low Baquacil (10-20 ppm)
[12] = Pool 6, Tablet 0.3 ppm/day DBNPA, Recommended Baquacil (30-50 ppm), with hydrogen peroxide doses
[13] = Pool 7, 2.0 ppm/day DBNPA, Low Baquacil (10-20 ppm)
[14] = Pool 7, 2.0 ppm/day DBNPA, Recommended Baquacil (30-50 ppm)
[15] = DBNPA 1 ppm Daily Additions, in the absence of PHMB

Compound: CCCCCCCCCCCCN [Armeen 12D, Dodecyl amines]
- Efficacy level (Effective Concentration with 6 ppm of PHMB) [1]: >100 ppm

Compound: N#CC(Br)(Br)C(N)=O [DBNPA, Dibromonitrilopropionamide]
- Bacteria % 0 counts [2, 9]: 83.6%
- Bacteria % Counts >999 cfu/ml [2, 9]: 4.5%
- Bacteria Avg Counts [2, 9]: 561 cfu/ml
- Bacteria % 0 counts [2, 10]: 83.3%
- Bacteria % Counts >999 cfu/ml [2, 10]: 2.4%
- Bacteria Avg Counts [2, 10]: 74.0 cfu/ml
- Bacteria % 0 counts [2, 11]: 88%
- Bacteria % Counts >999 cfu/ml [2, 11]: 1.5%
- Bacteria Avg Counts [2, 11]: 150 cfu/ml
- Bacteria % 0 counts [2, 12]: 92.8%
- Bacteria % Counts >999 cfu/ml [2, 12]: 0.0%
- Bacteria Avg Counts [2, 12]: 5.0 cfu/ml
- Bacteria % 0 counts [2, 13]: 89.6%
- Bacteria % Counts >999 cfu/ml [2, 13]: 0.0%
- Bacteria Avg Counts [2, 13]: 22.0 cfu/ml
- Bacteria % 0 counts [2, 14]: 100%
- Bacteria % Counts >999 cfu/ml [2, 14]: 0.0%
- Bacteria Avg Counts [2, 14]: 0.0 cfu/ml
- reduction of viable bacterial and fungal populations (remedial performance) ([3]; versus oxidizers and surfactants): significantly better than the oxidizers and surfactants
- log reduction of viable bacteria in the water ([3]; remedial treatment of failed model system): improved performance over the non-oxidizing surfactants
- log reduction of viable bacteria in the sand ([3]; remedial treatment of failed model system, established biofilm): superior
- Fungal Counts at Clarity of 1.0 NTU or above ([4]; DBNPA 0.25 ppm Daily Additions): 3.0 × 10^2 CFU/ml
- Fungal Counts at Clarity of 1.0 NTU or above ([4]; DBNPA 0.5 ppm Daily Additions): 2.0 × 10^2 CFU/ml
- Fungal Counts at Clarity of 1.0 NTU or above [4, 15]: 1.2 × 10^3 CFU/ml
- Bacterial Counts at Clarity of 1.0 NTU or above ([5]; DBNPA 0.25 ppm Daily Additions): 3.0 × 10^7 CFU/ml
- Bacterial Counts at Clarity of 1.0 NTU or above ([5]; DBNPA 0.5 ppm Daily Additions): 1.3 × 10^8 CFU/ml
- Bacterial Counts at Clarity of 1.0 NTU or above [5, 15]: 9.9 × 10^7 CFU/ml
- Effective concentration of DBNPA in presence of PHMB and Adjuvant ([1]; Adjuvant DSPO 50 ppm): 1.6-3.13 ppm
- Effective concentration of DBNPA in presence of PHMB and Adjuvant ([1]; Adjuvant DTEA 50 ppm): 3.13-6.25 ppm
- Effective concentration of DBNPA in presence of PHMB and Adjuvant ([1]; Adjuvant Envirosweet 50 ppm): 6.25-12.5 ppm
- Effective concentration of DBNPA in presence of PHMB and Adjuvant ([1]; Adjuvant Geogard 111A 50 ppm): 6.25-12.5 ppm
- Effective concentration of DBNPA in presence of PHMB and Adjuvant ([1]; Adjuvant None): 3.13-6.25 ppm
- Effective concentration of DBNPA in presence of PHMB and Adjuvant ([1]; Adjuvant SADA 50 ppm): 1.5-3.13 ppm
- Effective concentration of DBNPA in presence of PHMB and Adjuvant ([1]; Adjuvant Span 60 50 ppm): 3.13-6.25 ppm
- Effective concentration of DBNPA in presence of PHMB and Adjuvant ([1]; Adjuvant Sulfamic acid 50 ppm): 0.8-1.6 ppm
- Effective concentration of DBNPA in presence of PHMB and Adjuvant ([1]; Adjuvant Surfonic L24-22 50 ppm): 3.13-6.25 ppm
- Effective concentration of DBNPA in presence of PHMB and Adjuvant ([1]; Adjuvant Triton BG10 50 ppm): 3.13-6.25 ppm
- Effective concentration of DBNPA in presence of PHMB and Adjuvant ([1]; Adjuvant Worm 50 ppm): 1.6-3.13 ppm
- Number of Days of Clarity below 1.0 NTU ([6]; DBNPA 0.25 ppm Daily Additions): 47 days
- Number of Days of Clarity below 1.0 NTU with no Peroxide in System ([6]; DBNPA 0.25 ppm Daily Additions): 0 days
- Number of Days of Clarity below 1.0 NTU ([6]; DBNPA 0.5 ppm Daily Additions): 54 days
- Number of Days of Clarity below 1.0 NTU with no Peroxide in System ([6]; DBNPA 0.5 ppm Daily Additions): 19 days
- Number of Days of Clarity below 1.0 NTU [6, 15]: <12 days
- time to failure of the system (turbid water) versus PHMB alone or PHMB and DBNPA combinations ([6]; experiment 2, DBNPA added daily at 1 ppm in the absence of PHMB): failure of the system and development of turbid water significantly sooner
- performance at preventing turbid water and controlling bacteria and fungi, compared to PHMB alone ([6]; experiment one, DBNPA weekly addition with PHMB): did not perform as well as the PHMB only treatment
- Mold % 0 counts [7, 9]: 59.7%
- Mold % Counts >999 cfu/ml [7, 9]: 3.0%
- Mold Avg Counts [7, 9]: 4267 cfu/ml
- Mold % 0 counts [7, 10]: 69.0%
- Mold % Counts >999 cfu/ml [7, 10]: 0.0%
- Mold Avg Counts [7, 10]: 9.0 cfu/ml
- mold control compared to the other DBNPA pools ([7]; Pool 2 at low PHMB (1.0 ppm/day DBNPA)): had difficulty controlling mold
- Mold % 0 counts [7, 11]: 76.1%
- Mold % Counts >999 cfu/ml [7, 11]: 0.0%
- Mold Avg Counts [7, 11]: 19.0 cfu/ml
- Mold % 0 counts [7, 12]: 66.7%
- Mold % Counts >999 cfu/ml [7, 12]: 0.0%
- Mold Avg Counts [7, 12]: 8.0 cfu/ml
- Mold % 0 counts [7, 13]: 74.6%
- Mold % Counts >999 cfu/ml [7, 13]: 1.5%
- Mold Avg Counts [7, 13]: 620 cfu/ml
- Mold % 0 counts [7, 14]: 83.3%
- Mold % Counts >999 cfu/ml [7, 14]: 0.0%
- Mold Avg Counts [7, 14]: 4.0 cfu/ml
- average mold and bacterial counts when PHMB was increased to recommended ranges ([8]; all pools treated with DBNPA): significantly reduced
- improved performance over controls (average mold and bacterial counts) ([8]; all pools treated with DBNPA versus control pools): 2-4 logs

Compound: O=C1c2ccccc2C(=O)c2ccccc21 [Envirosweet, 9,10 anthraquinone]
- Result (effect of adjuvant on DBNPA efficacy against biofilm) [1]: Negative impact

Compound: CC(=O)C1C(=O)C=C(C)OC1=O (stereo not drawn) [Geogard 111A, Dehydroxyacetic acid (dehydroacetic acid)]
- Result (effect of adjuvant on DBNPA efficacy against biofilm) [1]: Negative impact

Compound: CCCCCCCCCCCCCC(=O)O [Myristian, Mystic acid]
- Efficacy level (Effective Concentration with 6 ppm of PHMB) [1]: >100 ppm

Compound: NS(=O)(=O)O [Sulfamic acid]
- Result (effect of adjuvant on DBNPA efficacy against biofilm) [1]: most significant effect on lowering the concentration of DBNPA

Compound: Fatty alcohol polyglycol ether [Genapol C 050]
- Efficacy level (Effective Concentration with 6 ppm of PHMB) [1]: >100 ppm

Compound: N-Alkyl (C12-16)-N,N-dimethyl-N-benzylammonium chloride [Uniquat QAC-50]
- Efficacy level (Effective Concentration with 6 ppm of PHMB) [1]: >100 ppm

Compound: POE (2) stearyl ether [Brij ® 72]
- Efficacy level (Effective Concentration with 6 ppm of PHMB) [1]: >100 ppm

Compound: Sorbitan monooleate [Alkamuls BR]
- Efficacy level (Effective Concentration with 6 ppm of PHMB) [1]: >100 ppm
